Laboratory results as given in patent US20020197294A1, “PYRONE COMPOUNDS AND THERE USE” (SUMITOMO CHEMICAL COMPANY, LIMITED, priority 2001, published 2002).

Legend:
Format in all cases: in vivo
[1] = tested on: houseflies (Musca domestics); assay: Housefly topical application test (Test Example 3); details: 0.5 μl of 30 g/l acetone solution at back thoracic region (about 15 μg/one housefly), female houseflies, after 24 hours, three replicate
Experimental: A solution (30 g/l) for each of the present compound (A) and the reference compound was prepared by diluting with acetone.
The acetone solution (0.5 μl) was applied to 10 female houseflies (Musca domestics) at the back thoracic region (active ingredient: about 15 μg/one housefly) by a microsyringe and the houseflies were left with water and feed in a plastic cup. After 24 hours, the mortality (%) was examined (three replicate).

[2] = tested on: houseflies (Musca domestics); assay: Housefly filter paper test (Test Example 2); details: 0.7 ml of 500 ppm aqueous dilution on filter paper, female houseflies, after one day
Experimental: Filter paper of 5.5 cm in diameter was laid in the bottom of a polyethylene cup (diameter: 5.5 cm). After 0.7 ml of a 500 ppm aqueous dilution obtained by diluting the formulation of the test compound prepared according to the formulation example 1 was dropped on the filter paper, 30 mg of sucrose was scattered. Ten female houseflies (Musca domestics) were left in the cup with a cover. After one day, the mortality of the houseflies was examined.

[3] = tested on: German cockroaches (Blattella germanica); assay: German cockroach filter paper test (Test Example 1); details: 144 h, 0.7 ml of 500 ppm aqueous dilution on filter paper, male German cockroaches, after six days
Experimental: Filter paper of 5.5 cm in diameter was laid in the bottom of a polyethylene cup (diameter: 5.5 cm). After 0.7 ml of a 500 ppm aqueous dilution obtained by diluting the formulation of the test compound prepared according to the formulation example 1 was dropped on the filter paper, 30 mg of sucrose was scattered. Two male German cockroaches (Blattella germanica) were left in the polyethylene cup with a cover. After six days, the mortality of the German cockroaches was examined.

SMILES | Mortality (%) [1] [%] | mortality of the houseflies [2] [%] | mortality at 500 ppm [3] [%]
CCCC(=O)c1c(O)cc(C)oc1=O [The Reference compound, reference compound] | 3.3 |  | 
Cc1cc(O)c(C(=O)CCC(F)(F)F)c(=O)o1 [the present compound (A), 4-hydroxy-6-methyl-3-(4,4,4-trifluorobutyryl)-2-pyrone] | 100 | 100 | 100
Cc1cc(O)c(C(=O)CC(C)C(F)(F)F)c(=O)o1 (centres unmarked) [the present compound (B), 4-hydroxy-6-methyl-3-(3-trifluoromethylbutyryl)-2-pyrone] |  | 100 | 100
Cc1cc(O)c(C(=O)CC(C(F)(F)F)C(F)(F)F)c(=O)o1 [the present compound (C), 4-hydroxy-6-methyl-3-(3-trifluoromethyl-4,4,4-trifluorobutyryl) -2-pyrone] |  | 100 | 100
